Article PMC12634411, “Phase Ib study of berzosertib, carboplatin, gemcitabine, and pembrolizumab in patients with squamous nonsmall lung cancer (ETCTN 10313)” (The Oncologist, 2025)
Where “and” joins values, the source holds several entries; their conditions need not be identical. Identical values can stand only once.

Tests used:
[1] = Berzosertib plasma pharmacokinetics, phase Ib trial; details: for Cmax: human, plasma, iv, 135 mg/m2, Cmax, geometric mean (SD)
Excerpt: Due to the limited sampling, the most reliable PK parameter assessed was Cmax.

[2] = system: p-Chk1 (Chk1, a primary downstream target of ATR); details: reported value, no reference given; cited from earlier work
[3] = system: advanced urothelial carcinoma; set-up: method as in PMID 34436521; details: gemcitabine and cisplatin plus berzosertib, phase II; cited from earlier work
[4] = system: patients with advanced solid tumors; set-up: method as in PMID 32568634; details: berzosertib 90-240 mg/m^2 and carboplatin AUC 4-5, 23 patients; cited from earlier work
[5] = system: newly diagnosed advanced squamous NSCLC; assay: Antitumor activity (RECIST 1.1), PFS, OS, ORR; assay type: in vivo, human; details: gemcitabine, pembrolizumab
Excerpt: (§1) Primary endpoint was the recommended phase II dose (RP2D). Antitumor activity and pharmacokinetics were secondary endpoints. Results Twelve patients were enrolled and treated. […] Five of eleven evaluable patients (46%) experienced partial response. […] Clinicaltrials.gov Identifier: NCT04216316.
(§2) Antitumor activity and pharmacokinetics were secondary endpoints.

[6] = system: patients with newly diagnosed advanced squamous NSCLC; assay: Phase Ib safety and tolerability: dose-limiting toxicity, treatment-related adverse events, RP2D; assay type: in vivo, human; details: four-drug combination, carboplatin Day 1 of 3-week cycle
Excerpt: as §1, §2
Twelve patients were enrolled and treated in phase Ib. […] The former patient passed away at home after having received cycle 1 Day 9 of therapy and causality was based on clinical history. While this event is not typical of the components of this regimen, we conservatively determined the event to be at least possible related to the platinum backbone of therapy and deemed this a DLT. […] Most common treatment-related adverse events (TRAEs) were anemia (83%), neutropenia (83%), leukopenia (83%), thrombocytopenia (58%), ALT increase (50%), lymphopenia (50%), and nausea (50%).

[7] = system: ATM-deficient NSCLC tumors; set-up: method as in PMID 26517239; details: combination of ceralasertib (AZD6738) and cisplatin, xenograft models; cited from earlier work
[8] = Gemcitabine (dFdC) and metabolite (dFdU) plasma pharmacokinetics, phase Ib trial; details: geometric mean (SD)
Excerpt: Primary endpoint was the recommended phase II dose (RP2D). Antitumor activity and pharmacokinetics were secondary endpoints. […] Clinicaltrials.gov Identifier: NCT04216316.
as §2

Compound: CNCc1ccc(-c2cc(-c3nc(-c4ccc(S(=O)(=O)C(C)C)cc4)cnc3N)on2)cc1 [Berzosertib]
- Cmax/Dose ([1]; Dose level 1, 135 mg/m^2, N = 6, Day 2 of cycle 1, geometric mean (SD)): 5.18 (1.34) µg/L/mg/m^2
- Cmax/Dose ([1]; Dose level −1, 135 mg/m^2, N = 6, Day 2 of cycle 1, geometric mean (SD)): 4.74 (1.31) µg/L/mg/m^2
- Cmax/Dose ([1]; Total N = 12, Day 2 of cycle 1, geometric mean (SD)): 4.99 (1.31) µg/L/mg/m^2
- Cmax ([1]; Dose level 1, 135 mg/m^2 IV, N = 6, Day 2 of cycle 1, plasma): 700 ng/mL
- Cmax ([1]; Dose level −1, 135 mg/m^2 IV, N = 6, Day 2 of cycle 1, plasma): 640 ng/mL
- Cmax ([1]; Total N = 12, 135 mg/m^2 IV, Day 2 of cycle 1, plasma): 669 ng/mL
- human equivalent p-Chk1 IC50 [2]: approximately 110 ng/mL
- survival with the addition of berzosertib vs gemcitabine and cisplatin alone [3]: inferior survival
- events of grade ≥3 nausea and vomiting [4]: no events
- grade ≥3 neutropenia [4]: 22%
- ORR (partial response) ([5]; 5 of 11 evaluable patients, 95% CI: 16.7%, 76.6%, RECIST 1.1, combination with carboplatin): 46% and 45.5%
- stable disease ([5]; 6 of 11 evaluable patients, 95 CI: 23.4%, 83.3%, combination with carboplatin): 54.5%
- median PFS ([5]; 12 patients, 95% CI: 3, 13, median follow-up 17 months, combination with carboplatin): 9 months
- median OS ([5]; 12 patients, 95% CI: 3, not reached, median follow-up 17 months, combination with carboplatin): 15 months

Compound: N.N.O=C([O-])C1(C(=O)[O-])CCC1.[Pt+2] [carboplatin]
- recommended phase II dose (RP2D) [6]: 4 AUC

Compound: C[C@@H]1COCCN1c1cc(C2([S@](C)(=N)=O)CC2)nc(-c2cc[nH]c3nccc2-3)n1 [ceralasertib]
- effect on ATM-deficient NSCLC tumors [7]: near-complete resolution

Compound: Nc1ccn([C@@H]2O[C@H](CO)[C@@H](O)C2(F)F)c(=O)n1 [gemcitabine]
- dFdC Cmax ([8]; Dose level 1, gemcitabine 800 mg/m^2, N = 6, plasma): 9.29 (1.51) mg/L
- dFdC Cmax ([8]; Dose level −1, gemcitabine 800 mg/m^2, N = 6, plasma): 11.2 (1.12) mg/L
- dFdC Cmax ([8]; Total N = 12, gemcitabine 800 mg/m^2, plasma): 10.2 (1.35) mg/L
